In patent US10292393B2, “Mitigation of alternate bearing” (The Regents of the University of California, priority 2009, dated 2019):
Marks after values point to notes of the source that are not given here.

What was measured:
[1] = tested on: on-crop ‘Nules’ Clementine mandarin trees; assay: Trunk injections, spring bloom of on-crop mandarin trees; type: in vivo; conditions: trunk injection 1 g per tree, counted at spring bloom
From the text: This example describes the mitigation of alternate bearing in ‘Nules’ Clementine mandarin trees achieved via trunk injection of adenosine in a composition containing the auxin transport inhibitor TIBA. On-crop ‘Nules’ Clementine mandarin trees received trunk injections of the following compounds listed in Table 1-1: TIBA (2,3,5-triiodobenzoic acid) (Sigma Chemical); 6-BA (6-benzyladenine) (Sigma Chemical); GA3 (PROGIBB® 40%, Valent BioSciences Corp.); and Ado (9-beta-D-adenosine) (Sigma Chemical, Catalog No. A9251) alone or in combination with TIBA. Each material was supplied at the rate of 1 g per tree dissolved in 50-60 ml distilled water using two plastic syringes per tree at each application time. Application times were timed (1) to stimulate summer shoot growth by overcoming correlative inhibition (July) and (2) to overcome inhibition of spring bud break (January). Thus, trees were treated in July alone or in July and January. There was also a treatment in which the apical three nodes of each shoot were removed to release the lateral buds from the dominance of the apical bud to promote summer vegetative shoot growth. The treatments included untreated on-crop control trees and untreated off-crop control trees. The experimental design was a randomized complete block with 5 individual tree replications per treatment with 13 treatments. For each tree, branches (12 inches long), 3 with fruit and 1 branch without fruit in each of the four tree quadrants, were tagged (off-crop control trees were tagged 3 without fruit and 1 with fruit). At the end of September and December, the number and length of new vegetative shoots were quantified to determine the capacity of treatments to overcome inhibition of buds that produce the summer and fall flush shoots, respectively.

[2] = tested on: on-crop ‘Hass’ avocado trees; assay: Trunk injections, spring bloom and yield of on-crop avocado trees; type: in vivo, ‘Hass’ avocado (Persea americana cv. Hass); conditions: trunk injection 1 g/tree, Jan; for Floral (with fruit): branches with fruit; for Floral (w/o fruit): branches without fruit; for Fruit yield: putative off-crop following the on-crop; for Determinate floral shoots / Floral shoots / Indeterminate floral shoots: spring bloom
Description: This example describes the mitigation of alternate bearing in ‘Hass’ avocado trees achieved via trunk injection of adenosine and plant growth regulators. The following treatments were injected (1 g/tree) in mid-January into the trunk of on-crop ‘Hass’ avocado trees in a commercial orchard in Irvine, Calif.: (1) 9-beta-D-adenosine (Sigma Chemical, Catalog No. A9251); (2) 6-BA (Sigma Chemical); (3) GA3 (PROGIBB® 40%, Valent BioSciences Corp.); (4) TIBA (Sigma Chemical); and (5) TIBA plus adenosine. Each material was supplied at the rate of 1 g per tree dissolved in 50-60 ml distilled water using two plastic syringes per tree. There were five individual tree replicates per treatment, including (6) untreated on-crop control trees. For each tree, branches (12 inches long), 1 with fruit and 1 branch without fruit in each of the four tree quadrants, were tagged.

mandarins = conditions: cited from earlier work
[3] = tested on: ‘Fina Sodea’ Clementine mandarin trees
[4] = 3-year cumulative, 25 mg/L in 250 gallons water per acre, once at maximum peel thickness
[5] = 3-year cumulative, jumbo (63.51-69.85 mm)
[6] = 3-year cumulative, large (57.16-63.50 mm)
[7] = 3-year cumulative, mammoth (69.86-76.20 mm)
[8] = 3-year cumulative, medium (50.81-57.15 mm)
[9] = 3-year cumulative, small (44.45-50.80 mm)

| SMILES | Floral on Spring shoots ([1]; Jul + Jan) | Floral on Summer-Fall shoots ([1]; Jul + Jan) | Floral shoots ([1]; Jul + Jan) | Leafless Floral shoots ([1]; Jul + Jan) | Leafy Floral shoots ([1]; Jul + Jan) | Floral on Spring shoots ([1]; July) | Floral on Summer-Fall shoots ([1]; July) | Floral shoots ([1]; July) | Leafless Floral shoots ([1]; July) | Leafy Floral shoots ([1]; July) | Floral (with fruit) [2] | Floral (w/o fruit) [2] | Fruit yield [2] [No. per tree] | Determinate floral shoots [2] | Floral shoots [2] | Indeterminate floral shoots [2] | also measured |
| --- | --- | --- | --- | --- | --- | --- | --- | --- | --- | --- | --- | --- | --- | --- | --- | --- | --- |
| C=C1C[C@]23C[C@@]1(O)CC[C@H]2[C@@]12C=C[C@H](O)[C@@](C)(C(=O)O1)[C@H]2[C@@H]3C(=O)O [GA3, gibberellic acid] | 0 c No. of shoots per 100 nodes | 2 No. of shoots per 100 nodes | 1 No. of shoots per 100 nodes | 0 No. of shoots per 100 nodes | 1 No. of shoots per 100 nodes | 0 c No. of shoots per 100 nodes | 4 No. of shoots per 100 nodes | 3 No. of shoots per 100 nodes | 0 No. of shoots per 100 nodes | 3 No. of shoots per 100 nodes | 6 No. of shoots per 100 nodes | 8 No. of shoots per 100 nodes | 194 | 2 b No. of shoots per 100 nodes | 7 b No. of shoots per 100 nodes | 6 No. of shoots per 100 nodes | Effect on total number of fruit per tree (mandarins; light crop year (approximately 550 fruit per tree), four applications from 60% bloom, 15 or 25 mg GA3/L): successfully increase the total number of fruit per tree; Effect on total yield and yield of large size fruit (mandarins; on-crop years (approximately 1200 fruit per tree)): either reduced both total yield and yield of commercially valuable large size fruit (packing carton sizes large, jumbo and mammoth) or had no effect |
| O=C(O)c1cc(I)cc(I)c1I [TIBA, 2,3,5-triiodobenzoic acid] | 5 bc No. of shoots per 100 nodes | 26 No. of shoots per 100 nodes | 18 No. of shoots per 100 nodes | 3 No. of shoots per 100 nodes | 15 No. of shoots per 100 nodes | 3 bc No. of shoots per 100 nodes | 27 No. of shoots per 100 nodes | 19 No. of shoots per 100 nodes | 5 No. of shoots per 100 nodes | 13 No. of shoots per 100 nodes | 11 No. of shoots per 100 nodes | 8 No. of shoots per 100 nodes | 478 | 1 b No. of shoots per 100 nodes | 9 b No. of shoots per 100 nodes | 8 No. of shoots per 100 nodes |  |
| Nc1ncnc2c1ncn2[C@@H]1O[C@H](CO)[C@@H](O)[C@H]1O [Ado, 9-beta-D-adenosine] | 5 bc No. of shoots per 100 nodes | 16 No. of shoots per 100 nodes | 12 No. of shoots per 100 nodes | 0 No. of shoots per 100 nodes | 12 No. of shoots per 100 nodes | 2 bc No. of shoots per 100 nodes | 14 No. of shoots per 100 nodes | 10 No. of shoots per 100 nodes | 2 No. of shoots per 100 nodes | 8 No. of shoots per 100 nodes | 8 No. of shoots per 100 nodes | 10 No. of shoots per 100 nodes | 220 | 3 ab No. of shoots per 100 nodes | 10 ab No. of shoots per 100 nodes | 7 No. of shoots per 100 nodes | Quantity of fruit, Total [3, 4]: 1529.3^y fruit no./tree; Yield of fruit, Total [3, 4]: 126.30^y kg/tree; Quantity of fruit, Colossal ([3]; 3-year cumulative, colossal (76.21-82.55 mm)): 5.64 fruit no./tree; Quantity of fruit, Jumbo [3, 5]: 128.25 a fruit no./tree; Yield of fruit, Jumbo [3, 5]: 15.42 a kg/tree; Quantity of fruit, Large [3, 6]: 360.93 a fruit no./tree; Yield of fruit, Large [3, 6]: 34.67 a kg/tree; Quantity of fruit, Mammoth [3, 7]: 22.89 fruit no./tree; Yield of fruit, Mammoth [3, 7]: 3.52 kg/tree; Quantity of fruit, Medium [3, 8]: 497.05 fruit no./tree; Yield of fruit, Medium [3, 8]: 37.00 kg/tree; Yield of fruit, Colossal ([3]; 3-year cumulative, packing carton size colossal (76.21-82.55 mm)): 1.04 kg/tree; Quantity of fruit, Small [3, 9]: 417.12 fruit no./tree; Yield of fruit, Small [3, 9]: 23.58 kg/tree; Quantity of fruit, Ma + J + L ([3]; 3-year cumulative, sum of mammoth, jumbo and large): 512.07 a fruit no./tree; Yield of fruit, Ma + J + L ([3]; 3-year cumulative, sum of mammoth, jumbo and large (57.16-76.20 mm)): 53.60 kg/tree; Effects on mandarin fruit quality ([3]; in vivo): did not have negative effects; Net increase in total yield ([3]; versus control, numerical (non-significant)): 6,799 lbs fruit/200 trees/acre; Net increase in 3-year cumulative yield of commercially valuable large fruit (57.16-76.20 mm in diameter) ([3]; versus control, statistically significant): 4,735 lbs/200 trees/acre |
